According to patent US20230265151A1, “GIP/GLP1 CO-AGONIST COMPOUNDS” (priority 2020, published 2023):
Read-outs that look alike come from different tables or passages of the source.

Legend:
[1] = target: T1, human GLP-1 receptor (hGLP-1R) (Homo sapiens, UniProt P43220); assay: [125I]-GLP-1 binding, SPA with membranes of HEK293 cells expressing hGLP-1R
T1 construct: expressed in transfected cells; crude membranes

[2] = target: hGLP-1R (Homo sapiens, UniProt P43220); assay: Functional cAMP formation (HTRF) in HEK-293 clonal cells expressing hGLP-1R, 0.1% bovine casein, without or with 1.0% human serum albumin; format: cell-based; parameters: expressed in transfected cells; conditions: for EC50: cAMP, 0.1% bovine casein (no human serum albumin), geometric mean
hGLP-1R, sequence (P43220 24-463): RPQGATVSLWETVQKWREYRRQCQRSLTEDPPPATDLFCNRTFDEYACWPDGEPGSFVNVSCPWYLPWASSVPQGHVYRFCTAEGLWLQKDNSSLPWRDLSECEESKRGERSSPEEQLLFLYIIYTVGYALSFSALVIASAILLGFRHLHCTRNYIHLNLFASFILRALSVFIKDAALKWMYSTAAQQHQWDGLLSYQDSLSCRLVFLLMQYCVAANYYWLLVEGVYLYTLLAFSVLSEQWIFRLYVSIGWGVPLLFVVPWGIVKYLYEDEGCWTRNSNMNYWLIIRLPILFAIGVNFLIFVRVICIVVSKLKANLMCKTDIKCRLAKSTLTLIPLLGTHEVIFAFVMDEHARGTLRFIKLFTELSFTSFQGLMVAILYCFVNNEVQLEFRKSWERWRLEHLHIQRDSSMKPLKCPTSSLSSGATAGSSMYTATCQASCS
Method in brief: (§1)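 Cells were stimulated with peptide for 30 min at 37° C, then lysed in buffer carrying cAMP-d2 and anti-cAMP Eu3+-cryptate for a competitive HTRF read after at least 60 min at room temperature. The 665/620 nm ratio was converted to nM cAMP against a standard curve.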

[3] = target: T2, human Gcg receptor (hGcgR) (Homo sapiens, UniProt P47871); assay: [125I]-Glucagon binding, SPA with membranes of HEK293 cells expressing hGcgR
T2 construct: expressed in transfected cells; crude membranes
T2 sequence (P47871 26-477): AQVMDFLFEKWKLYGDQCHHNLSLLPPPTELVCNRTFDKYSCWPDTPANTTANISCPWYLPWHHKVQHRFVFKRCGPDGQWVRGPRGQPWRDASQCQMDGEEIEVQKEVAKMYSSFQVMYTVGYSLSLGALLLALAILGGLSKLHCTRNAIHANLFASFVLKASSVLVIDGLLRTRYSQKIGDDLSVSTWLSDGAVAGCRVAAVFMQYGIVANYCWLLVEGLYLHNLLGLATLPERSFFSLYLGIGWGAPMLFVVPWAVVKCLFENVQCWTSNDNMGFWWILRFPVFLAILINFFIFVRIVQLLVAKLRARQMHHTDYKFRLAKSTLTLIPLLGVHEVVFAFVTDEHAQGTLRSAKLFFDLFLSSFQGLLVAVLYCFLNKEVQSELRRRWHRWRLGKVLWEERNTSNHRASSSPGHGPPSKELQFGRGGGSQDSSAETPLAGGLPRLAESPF

[4] = target: T3, hGCGR (Homo sapiens, UniProt P47871); assay: Functional cAMP formation (HTRF) in HEK-293 clonal cells expressing hGCGR, 0.1% bovine casein, without or with 1.0% human serum albumin; format: cell-based
T3 construct: expressed in transfected cells
T3 sequence (P47871 26-477): as above
Method in brief: as §1

[5] = human GLP-1R, geometric mean (SEM, n), read-out: Binding Affinity Ki, nM (SEM, n) hGLP-1R
[6] = HEK293, 0.1% bovine casein and 1.0% human serum albumin, 37° C., percent of maximal response to GLP-1(7-36)NH2, read-out: hGLP-1R Emax, % ± SEM
[7] = HEK293, percent of maximal response to GLP-1(7-36)NH2, 37° C., 0.1% bovine casein, arithmetic mean, read-out: hGLP-1R Emax, % ± SEM
[8] = incubated at 37° C., read-out: hGLP-1R EC50, nM (SEM, n)
[9] = human GcgR, geometric mean (SEM, n), read-out: Binding Affinity Ki, nM (SEM, n) hGCGR
[10] = 0.1% bovine casein and 1.0% human serum albumin, 37° C., geometric mean, read-out: hGCGR EC50, nM (SEM, n)
[11] = cAMP, incubated at 37° C., 0.1% bovine casein (no human serum albumin), geometric mean, read-out: hGCGR EC50, nM (SEM, n)

T1 sequence (P43220 24-463): as the sequence (P43220 24-463) above

Q: For `CC[C@H](C)[C@H](NC(=O)[C@H](CC(C)C)NC(=O)[C@](C)(Cc1ccc(O)cc1)NC(=O)[C@@H](CCC(=O)O)NC(=O)[C@@H](NC(=O)[C@H](Cc1ccccc1)NC(=O)[C@H](CCC(=O)O)NC(=O)C(C)(C)NC(=O)[C@H](CCC(N)=O)NC(=O)[C@H](C)NC(=O)[C@H](CCCCNC(=O)COCCOCCNC(=O)COCCOCCNC(=O)CC[C@H](NC(=O)CCCCCCCCCCCCC(=O)O)C(=O)O)NC(=O)[C@H](CCCN)NC(=O)[C@H](CC(=O)O)NC(=O)[C@H](CC(C)C)NC(=O)[C@](C)(CC(C)C)NC(=O)[C@@H](NC(=O)[C@](C)(CO)NC(=O)[C@@H](NC(=O)[C@H](CC(=O)O)NC(=O)[C@H](CO)NC(=O)[C@@H](NC(=O)[C@](C)(Cc1ccccc1F)NC(=O)[C@@H](NC(=O)CNC(=O)[C@H](CCC(=O)O)NC(=O)C(C)(C)NC(=O)[C@@H](N)Cc1ccc(O)cc1)[C@@H](C)O)[C@@H](C)O)C(C)C)[C@@H](C)CC)[C@@H](C)CC)C(=O)N[C@@H](CCC(=O)O)C(=O)NCC(=O)NCC(=O)N[C@@H](CCCCNC(=O)COCCOCCNC(=O)COCCOCCNC(=O)CC[C@H](NC(=O)CCCCCCCCCCCCC(=O)O)C(=O)O)C(=O)N[C@@H](CO)C(=O)N[C@@H](CO)C(=O)NCC(=O)N[C@@H](C)C(=O)N1CCC[C@H]1C(=O)N1CCC[C@H]1C(=O)N1CCC[C@H]1C(=O)N[C@@H](CO)C(N)=O` [Example 212], which Ki [1, 5] is on record?
A: The Ki was 1.17 nM.

Q: What about the Emax [2, 6] of the same compound?
A: Its Emax is 91%.

Q: And the Emax [2, 7]?
A: The Emax was 94.7%.

Q: And the EC50 [2, 8]?
A: The EC50 was 0.265 nM.

Q: What about the Ki [3, 9] of the same compound?
A: The Ki was > 955 nM.

Q: And the EC50 [4, 10]?
A: Its EC50 is > 9950 nM.

Q: What about the EC50 [4, 11] of the same compound?
A: The EC50 was > 9950 nM.

Q: With `CC[C@H](C)[C@H](NC(=O)[C@H](CC(C)C)NC(=O)[C@](C)(Cc1ccc(O)cc1)NC(=O)[C@H](CCCCNC(=O)CC[C@H](NC(=O)COCCOCCNC(=O)COCCOCCNC(=O)CC[C@H](NC(=O)CCCCCCCCCOc1ccc(C(=O)O)cc1)C(=O)O)C(=O)O)NC(=O)[C@@H](NC(=O)[C@H](Cc1ccccc1)NC(=O)[C@H](CCCN)NC(=O)C(C)(C)NC(=O)[C@H](CCC(N)=O)NC(=O)[C@H](C)NC(=O)[C@H](CCC(N)=O)NC(=O)[C@H](CCCN)NC(=O)[C@H](CC(=O)O)NC(=O)[C@H](CC(C)C)NC(=O)[C@](C)(CC(C)C)NC(=O)[C@@H](NC(=O)C(C)(C)NC(=O)[C@H](Cc1ccncc1)NC(=O)[C@H](CC(=O)O)NC(=O)[C@H](CO)NC(=O)[C@@H](NC(=O)[C@](C)(Cc1ccccc1F)NC(=O)[C@@H](NC(=O)CNC(=O)[C@H](CCC(=O)O)NC(=O)C(C)(C)NC(=O)[C@@H](N)Cc1ccc(O)cc1)[C@@H](C)O)[C@@H](C)O)[C@@H](C)CC)[C@@H](C)CC)C(=O)N[C@@H](CCCCNC(=O)CC[C@H](NC(=O)COCCOCCNC(=O)COCCOCCNC(=O)CC[C@H](NC(=O)CCCCCCCCCOc1ccc(C(=O)O)cc1)C(=O)O)C(=O)O)C(=O)NCC(=O)NCC(=O)N1CCC[C@H]1C(=O)N[C@@H](CO)C(=O)N[C@@H](CO)C(=O)NCC(=O)N[C@@H](C)C(=O)N1CCC[C@H]1C(=O)N1CCC[C@H]1C(=O)N1CCC[C@H]1C(=O)N[C@@H](CO)C(N)=O` [Example 483] as the compound, how does the Ki [1] read?
A: The Ki was 0.263 nM.

Q: And the Emax ([2]; HEK293, read-out: hGLP-1R Emax, % ± SEM, cAMP, 37° C., 0.1% bovine casein and 1.0% human serum albumin, percent of maximal response to GLP-1(7-36)NH2)?
A: Its Emax is 113%.

Q: And the Emax ([2]; HEK293, read-out: hGLP-1R Emax, % ± SEM, cAMP, 37° C., 0.1% bovine casein, percent of maximal response to GLP-1(7-36)NH2, arithmetic mean)?
A: The Emax was 118%.

Q: What about the EC50 ([2]; hGLP-1R EC50, nM (SEM, n), 37° C.) of the same compound?
A: The EC50 was 0.169 nM.

Q: And the Ki [3]?
A: Its Ki is 151 nM.

Q: And the EC50 ([4]; hGCGR EC50, nM (SEM, n), cAMP, 37° C., 0.1% bovine casein (no human serum albumin), geometric mean)?
A: Its EC50 is > 9950 nM.

Q: And the EC50 ([4]; hGCGR EC50, nM (SEM, n), cAMP, 37° C., 0.1% bovine casein and 1.0% human serum albumin, geometric mean (SEM, n))?
A: Its EC50 is > 9950 nM.

Q: For `CC[C@H](C)[C@H](NC(=O)[C@H](CC(C)C)NC(=O)[C@](C)(Cc1ccc(O)cc1)NC(=O)[C@@H](CCC(=O)O)NC(=O)[C@@H](NC(=O)[C@H](Cc1ccccc1)NC(=O)[C@H](CCC(=O)O)NC(=O)C(C)(C)NC(=O)[C@H](CCC(N)=O)NC(=O)[C@H](C)NC(=O)[C@H](CCCCNC(=O)COCCOCCNC(=O)COCCOCCNC(=O)CC[C@H](NC(=O)CCCCCCCCCCCCC(=O)O)C(=O)O)NC(=O)[C@H](CCCN)NC(=O)[C@H](CC(=O)O)NC(=O)[C@H](CC(C)C)NC(=O)[C@](C)(CC(C)C)NC(=O)[C@@H](NC(=O)C(C)(C)NC(=O)[C@@H](NC(=O)[C@H](CC(=O)O)NC(=O)[C@H](CO)NC(=O)[C@@H](NC(=O)[C@](C)(Cc1ccccc1F)NC(=O)[C@@H](NC(=O)CNC(=O)[C@H](CCC(=O)O)NC(=O)C(C)(C)NC(=O)[C@@H](N)Cc1ccc(O)cc1)[C@@H](C)O)[C@@H](C)O)C(C)C)[C@@H](C)CC)[C@@H](C)CC)C(=O)N[C@@H](CCC(=O)O)C(=O)NCC(=O)NCC(=O)N[C@@H](CCCCNC(=O)COCCOCCNC(=O)COCCOCCNC(=O)CC[C@H](NC(=O)CCCCCCCCCCCCC(=O)O)C(=O)O)C(=O)N[C@@H](CO)C(=O)N[C@@H](CO)C(=O)NCC(=O)N[C@@H](C)C(=O)N1CCC[C@H]1C(=O)N1CCC[C@H]1C(=O)N1CCC[C@H]1C(=O)N[C@@H](CO)C(N)=O` [Example 91], which Ki [1, 5] is on record?
A: Its Ki is 1.26 nM.

Q: And the Emax [2, 6]?
A: The Emax was 89.8%.

Q: And the Emax [2, 7]?
A: The Emax was 94 ± 5.44%.

Q: And the EC50 [2, 8]?
A: The EC50 was 0.153 nM.

Q: What about the Ki [3, 9] of the same compound?
A: The Ki was > 955 nM.

Q: And the EC50 [4, 10]?
A: Its EC50 is > 9950 nM.

Q: And the EC50 [4, 11]?
A: Its EC50 is > 9950 nM.
